Assay results: publication PMC5295233, “Biochemical and Structural Insights into a Novel Thermostable β-1,3-Galactosidase from Marinomonas sp. BSi20414” (Marine Drugs, 2017)

System: T1, MaBGA (β-galactosidase from Marinomonas sp. BSi20414)
T1 construct: native enzyme purified from the wild-type strain (ammonium sulfate, HiTrap DEAE FF); GH42; catalytic Glu142 and Glu314; no tag
Assay: release of o-nitrophenol at […] nm, nonlinear Michaelis-Menten fit
Type: biochemical
Settings: apparent Km; 50 mM PBS pH 7.0 (standard assay); ONPG 0.1-19 mM; temperature not given

Km: 14.2 mM
SMILES: O=[N+]([O-])c1ccccc1O[C@@H]1O[C@H](CO)[C@H](O)[C@H](O)[C@H]1O [ONPG, o-nitrophenyl-β-D-galactopyranoside]
